Reference: publication PMC13128454, “Mutant p53 protein accumulation is selectively targetable by proximity-inducing drugs” (Nature Chemical Biology, 2025)
“And” between values parts separate entries of the source, which are not always exact repeats. Equal entries are not always repeated. Where two headings read alike, the source gives them in different places.

Tests used:
Format in all cases: cell-based
[1] = system: Halo–p53-Y220C ΔTAD–mCherry 293T cells; experiment: annexin–PI staining; conditions: for P3_avg (P3 = early apoptotic) / P5_avg (P5 = late apoptotic): Cell_Line Y220C, proportion of cells; for avgprop_P3 / avgprop_P4 / avgprop_P5 / avgprop_P2 / P2_viable / P3_AnnexinPos_PIneg / P4_PIpos_AnnexinNeg / P5_PIpos_Annexinpos / prop_P3 / prop_P4 / prop_P5 / prop_P2: Y220C; for avgprop_P3: average proportion AnnexinPos PIneg; for avgprop_P4: average proportion PIpos AnnexinNeg; for avgprop_P5: average proportion PIpos Annexinpos; for avgprop_P2: average proportion viable; for P2_viable / P3_AnnexinPos_PIneg / P4_PIpos_AnnexinNeg / P5_PIpos_Annexinpos: event count; for P2_viable / P3_AnnexinPos_PIneg / P4_PIpos_AnnexinNeg / P5_PIpos_Annexinpos / prop_P3 / prop_P4 / prop_P5 / prop_P2: single replicate; for prop_P3: proportion AnnexinPos PIneg; for prop_P4: proportion PIpos AnnexinNeg; for prop_P5: proportion PIpos Annexinpos; for prop_P2: proportion viable
Experimental: (§1) Cells were plated in six-well plates and treated with varying concentrations of compounds for 1 day. Cells were stained with annexin V–AF488 and PI following the manufacturer’s instructions (Thermo Fisher, V13241) and analyzed by flow cytometry (Beckman CytoFLEX LX), using untreated cells to establish gates.

parental 293T cells [2] = experiment: annexin–PI staining; conditions: for P3_avg (P3 = early apoptotic) / P5_avg (P5 = late apoptotic): Cell_Line WT, proportion of cells; for avgprop_P3 / avgprop_P4 / avgprop_P5 / avgprop_P2 / P2_viable / P3_AnnexinPos_PIneg / P4_PIpos_AnnexinNeg / P5_PIpos_Annexinpos / prop_P3 / prop_P4 / prop_P5 / prop_P2: WT; for avgprop_P3: average proportion AnnexinPos PIneg; for avgprop_P4: average proportion PIpos AnnexinNeg; for avgprop_P5: average proportion PIpos Annexinpos; for avgprop_P2: average proportion viable; for P2_viable / P3_AnnexinPos_PIneg / P4_PIpos_AnnexinNeg / P5_PIpos_Annexinpos: event count; for P2_viable / P3_AnnexinPos_PIneg / P4_PIpos_AnnexinNeg / P5_PIpos_Annexinpos / prop_P3 / prop_P4 / prop_P5 / prop_P2: single replicate; for prop_P3: proportion AnnexinPos PIneg; for prop_P4: proportion PIpos AnnexinNeg; for prop_P5: proportion PIpos Annexinpos; for prop_P2: proportion viable
Experimental: as §1

[3] = system: Halo–p53-Y220C ΔTAD–mCherry 293T cells; experiment: cell-cycle analysis (DNA content, DAPI flow cytometry); design: 4N / 8N / Right_of_Gate1 (replicates) / Right_of_Gate2 (replicates) / 2N: unit not given here; conditions: 1 day; for 2N / 4N / 8N / Right_of_Gate1 (replicates) / Right_of_Gate2 (replicates): Y220C
Experimental: (§2) Cells were split into a 10-cm dish at low confluency (20%) and grown overnight. Cells were synchronized using overnight treatment with palbociclib (150 nM), washed and split into a six-well plate for treatment with compound for 24 h. Cells were harvested by trypsinization, washed twice with cold 1× PBS, fixed by dropwise addition of ice-cold 70% ethanol while vortexing and incubated overnight (4 °C). Fixed samples were centrifuged at 1,000g for 5 min and 70% ethanol was removed. Cells were washed twice with 1× PBS + 1% BSA before DNA labeling with 1 µg ml^−1 DAPI for 10 min at room temperature, before being analyzed for DNA content by flow cytometry (Beckman CytoFLEX LX).

parental 293T cells [4] = experiment: as above; conditions: 1 day; for 2N / 4N / Right_of_Gate1 (replicates) / Right_of_Gate2 (replicates): WT
Experimental: as §2

[5] = viability with doxycycline-inducible construct; conditions: human, dox 0, read-out: mean_norm (normalized viability)
Experimental: (§3) Cells were plated in 384-well plates (typically 1,500 cells per well) with varying concentrations of compounds, with a total volume of 50 μl per well. CTG reagent was added (25 μl) to the solutions, mixed and read out using an EnVision 2105 multimode plate reader.

[6] = system: 293T cells expressing a dox inducible Halo–p53-Y220C ΔTAD–mCherry; experiment: viability with doxycycline-inducible construct
Experimental: as §3

[7] = Conc 0.38 (unit not given; p53-01 in μM, BI2536 in nM)
[8] = Conc 0.75 (unit not given; p53-01 in μM, BI2536 in nM)
[9] = Conc 1.50 (unit not given; p53-01 in μM, BI2536 in nM)

CC[C@@H]1C(=O)N(C)c2cnc(Nc3ccc(C(=O)NCCOCCOCCOCCOCCC(=O)N4CCC(Nc5cccc6c5cc(C#CCNc5ccc(S(C)(=O)=O)cc5OC)n6CC(F)(F)F)CC4)cc3OC)nc2N1C1CCCC1 [p53-01, PMV6-PEG4-BI2536]
P3_avg (P3 = early apoptotic) ([1]; Concentration 0.75): 0.07971 | P5_avg (P5 = late apoptotic) ([1]; Concentration 0.75): 0.02225 | P3_avg (P3 = early apoptotic) ([1]; Concentration 1.5): 0.2575 | P5_avg (P5 = late apoptotic) ([1]; Concentration 1.5): 0.07698 | avgprop_P3 ([1]; Concentration 0.75): 0.07971 | avgprop_P4 ([1]; Concentration 0.75): 0.05038 | avgprop_P5 ([1]; Concentration 0.75): 0.02225 | avgprop_P2 ([1]; Concentration 0.75): 0.8477 | P2_viable ([1]; Concentration 0.75): 1654 and 1707 and 1670 | P3_AnnexinPos_PIneg ([1]; Concentration 0.75): 165 and 158 and 150 | P4_PIpos_AnnexinNeg ([1]; Concentration 0.75): 95 and 98 and 106 | P5_PIpos_Annexinpos ([1]; Concentration 0.75): 45 and 43 and 44 | prop_P3 ([1]; Concentration 0.75): 0.08423 and 0.07876 and 0.07614 | prop_P4 ([1]; Concentration 0.75): 0.04849 and 0.04885 and 0.05381 | prop_P5 ([1]; Concentration 0.75): 0.02297 and 0.02144 and 0.02234 | prop_P2 ([1]; Concentration 0.75): 0.8443 and 0.8509 and 0.8477 | avgprop_P3 ([1]; Concentration 1.5): 0.2575 | avgprop_P4 ([1]; Concentration 1.5): 0.06957 | avgprop_P5 ([1]; Concentration 1.5): 0.07698 | avgprop_P2 ([1]; Concentration 1.5): 0.5959 | P2_viable ([1]; Concentration 1.5): 912 and 887 and 871 | P3_AnnexinPos_PIneg ([1]; Concentration 1.5): 381 and 378 and 395 | P4_PIpos_AnnexinNeg ([1]; Concentration 1.5): 104 and 92 and 116 | P5_PIpos_Annexinpos ([1]; Concentration 1.5): 109 and 111 and 125 | prop_P3 ([1]; Concentration 1.5): 0.253 and 0.2575 and 0.2621 | prop_P4 ([1]; Concentration 1.5): 0.06906 and 0.06267 and 0.07697 | prop_P5 ([1]; Concentration 1.5): 0.07238 and 0.07561 and 0.08295 | prop_P2 ([1]; Concentration 1.5): 0.6056 and 0.6042 and 0.578 | P3_avg (P3 = early apoptotic) (parental 293T cells [2]; Concentration 0.75): 0.05911 | P5_avg (P5 = late apoptotic) (parental 293T cells [2]; Concentration 0.75): 0.02085 | P3_avg (P3 = early apoptotic) (parental 293T cells [2]; Concentration 1.5): 0.05067 | P5_avg (P5 = late apoptotic) (parental 293T cells [2]; Concentration 1.5): 0.02081 | avgprop_P3 (parental 293T cells [2]; Concentration 0.75): 0.05911 | avgprop_P4 (parental 293T cells [2]; Concentration 0.75): 0.03071 | avgprop_P5 (parental 293T cells [2]; Concentration 0.75): 0.02085 | avgprop_P2 (parental 293T cells [2]; Concentration 0.75): 0.8893 | P2_viable (parental 293T cells [2]; Concentration 0.75): 1988 and 1975 and 1922 | P3_AnnexinPos_PIneg (parental 293T cells [2]; Concentration 0.75): 134 and 116 and 141 | P4_PIpos_AnnexinNeg (parental 293T cells [2]; Concentration 0.75): 58 and 71 and 74 | P5_PIpos_Annexinpos (parental 293T cells [2]; Concentration 0.75): 48 and 44 and 46 | prop_P3 (parental 293T cells [2]; Concentration 0.75): 0.06014 and 0.05258 and 0.06459 | prop_P4 (parental 293T cells [2]; Concentration 0.75): 0.02603 and 0.03218 and 0.0339 | prop_P5 (parental 293T cells [2]; Concentration 0.75): 0.02154 and 0.01995 and 0.02107 | prop_P2 (parental 293T cells [2]; Concentration 0.75): 0.8923 and 0.8953 and 0.8804 | avgprop_P3 (parental 293T cells [2]; Concentration 1.5): 0.05067 | avgprop_P4 (parental 293T cells [2]; Concentration 1.5): 0.03243 | avgprop_P5 (parental 293T cells [2]; Concentration 1.5): 0.02081 | avgprop_P2 (parental 293T cells [2]; Concentration 1.5): 0.8961 | P2_viable (parental 293T cells [2]; Concentration 1.5): 1971 and 1980 and 1990 | P3_AnnexinPos_PIneg (parental 293T cells [2]; Concentration 1.5): 112 and 109 and 115 | P4_PIpos_AnnexinNeg (parental 293T cells [2]; Concentration 1.5): 75 and 68 and 72 | P5_PIpos_Annexinpos (parental 293T cells [2]; Concentration 1.5): 48 and 43 and 47 | prop_P3 (parental 293T cells [2]; Concentration 1.5): 0.05077 and 0.04955 and 0.05171 | prop_P4 (parental 293T cells [2]; Concentration 1.5): 0.034 and 0.03091 and 0.03237 | prop_P5 (parental 293T cells [2]; Concentration 1.5): 0.02176 and 0.01955 and 0.02113 | prop_P2 (parental 293T cells [2]; Concentration 1.5): 0.8935 and 0.9 and 0.8948 | DNA content ([3]; 0.75 μM, synchronized cells): accumulation of Halo–p53-Y220C ΔTAD–mCherry 293T cells with 4 N DNA content | cells with genome doubling (8 N DNA content) ([3]; 1.5 μM): ~ 60% | 2N [3, 7]: 58.97 | 4N [3, 7]: 39.03 | 8N [3, 7]: 2.00 | Right_of_Gate1 (replicates) [3, 7]: 41.03 and 37.34 and 37.12 | Right_of_Gate2 (replicates) [3, 7]: 2.00 and 2.08 and 2.06 | 2N [3, 8]: 39.09 | 4N [3, 8]: 57.44 | 8N [3, 8]: 3.47 | Right_of_Gate1 (replicates) [3, 8]: 60.91 and 56.52 and 59.94 | Right_of_Gate2 (replicates) [3, 8]: 3.47 and 3.35 and 3.58 | 2N [3, 9]: 1.94 | 4N [3, 9]: 38.53 | 8N [3, 9]: 59.53 | Right_of_Gate1 (replicates) [3, 9]: 98.06 (2×) and 98.33 | Right_of_Gate2 (replicates) [3, 9]: 59.53 and 59.10 and 58.35 | DNA content (parental 293T cells [4]; 0.75 μM, synchronized cells): unaffected | 2N (parental 293T cells [4]; [7]): 59.15 | 4N (parental 293T cells [4]; [7]): 37.20 | Right_of_Gate1 (replicates) (parental 293T cells [4]; [7]): 40.85 and 40.98 and 41.52 | Right_of_Gate2 (replicates) (parental 293T cells [4]; [7]): 3.65 and 3.77 and 3.58 | 2N (parental 293T cells [4]; [8]): 59.00 | 4N (parental 293T cells [4]; [8]): 37.55 | Right_of_Gate1 (replicates) (parental 293T cells [4]; [8]): 41.00 and 43.44 and 43.05 | Right_of_Gate2 (replicates) (parental 293T cells [4]; [8]): 3.45 and 3.41 and 3.53 | 2N (parental 293T cells [4]; [9]): 35.77 | 4N (parental 293T cells [4]; [9]): 52.80 | Right_of_Gate1 (replicates) (parental 293T cells [4]; [9]): 64.23 and 64.42 and 63.80 | Right_of_Gate2 (replicates) (parental 293T cells [4]; [9]): 11.43 and 12.05 and 12.32 | viability ([5]; Concentration 156.25): 99.3% | viability ([5]; Concentration 312.5): 95.6% | viability ([5]; Concentration 625): 95.7% | viability ([5]; Concentration 1250): 95.8% | viability ([5]; Concentration 2500): 77.5% | viability ([5]; Concentration 5000): 60.1% | change of potency upon doxycycline induction ([6]; dox 0, 100, 1000 ng/mL, 4 days): approximately twofold | mean_norm (normalized viability) ([6]; dox 0, Concentration 39.0625): 0.9911 | mean_norm (normalized viability) ([6]; dox 0, Concentration 78.125): 0.9922 | mean_norm (normalized viability) ([6]; dox 0, Concentration 10000): 0.4681 | mean_norm (normalized viability) ([6]; dox 100, Concentration 39.0625): 0.9915 | mean_norm (normalized viability) ([6]; dox 100, Concentration 78.125): 1.002 | mean_norm (normalized viability) ([6]; dox 100, Concentration 156.25): 0.9543 | mean_norm (normalized viability) ([6]; dox 100, Concentration 312.5): 0.9412 | mean_norm (normalized viability) ([6]; dox 100, Concentration 625): 0.8872 | mean_norm (normalized viability) ([6]; dox 100, Concentration 1250): 0.7055 | mean_norm (normalized viability) ([6]; dox 100, Concentration 2500): 0.6021 | mean_norm (normalized viability) ([6]; dox 100, Concentration 5000): 0.3858 | mean_norm (normalized viability) ([6]; dox 100, Concentration 10000): 0.3055 | mean_norm (normalized viability) ([6]; dox 1000, Concentration 39.0625): 0.9926 | mean_norm (normalized viability) ([6]; dox 1000, Concentration 78.125): 1.004 | mean_norm (normalized viability) ([6]; dox 1000, Concentration 156.25): 1.0052 | mean_norm (normalized viability) ([6]; dox 1000, Concentration 312.5): 0.8955 | mean_norm (normalized viability) ([6]; dox 1000, Concentration 625): 0.8604 | mean_norm (normalized viability) ([6]; dox 1000, Concentration 1250): 0.7628 | mean_norm (normalized viability) ([6]; dox 1000, Concentration 2500): 0.5571 | mean_norm (normalized viability) ([6]; dox 1000, Concentration 5000): 0.3298 | mean_norm (normalized viability) ([6]; dox 1000, Concentration 10000): 0.194
